# Laboratory results taken from patent US6737383B1, “Herbicidal oxadiazolidines” (priority 1999, dated 2004).
# Key:
# purple nutsedge = test: Test B pre/postemergence purple nutsedge; format: in vivo, Cyperus rotundus; conditions: for Plant response rating, Nutsedge: scale of 0 to 10 where 0 is no effect and 10 is complete control
# Procedure, shortened: (§1)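 Herbicidal effect was estimated by eye on a ten-point control scale after plants spent twelve to sixteen days in a greenhouse following soil or foliar treatment. Foliar sprays targeted plants at one to four leaves; all doses were formulated in a non-phytotoxic solvent with surfactant.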
# rape = test: Test B pre/postemergence rape; format: in vivo, Brassica napus; conditions: for Plant response rating, Rape: scale of 0 to 10 where 0 is no effect and 10 is complete control
# Procedure, shortened: as §1
# bedstraw = test: Test B pre/postemergence bedstraw; format: in vivo, Galium aparine; conditions: Postemergence, Rate 31 g/ha; visual rating, scale 0 to 10 (0 no effect, 10 complete control)
# Procedure, shortened: as §1
# blackgrass = test: Test B pre/postemergence blackgrass; format: in vivo, Alopecurus myosuroides; conditions: for Plant response rating, Blackgrass: scale of 0 to 10 where 0 is no effect and 10 is complete control
# Procedure, shortened: as §1
# surinam grass = test: Test B pre/postemergence surinam grass; format: in vivo, Brachiaria decumbens; conditions: for Plant response rating, B. signalgrass: scale of 0 to 10 where 0 is no effect and 10 is complete control
# Procedure, shortened: as §1
# velvetleaf = test: Test B pre/postemergence velvetleaf; format: in vivo, Abutilon theophrasti; conditions: for Plant response rating, Velvetleaf: scale of 0 to 10 where 0 is no effect and 10 is complete control
# Procedure, shortened: as §1
# bamyardgrass = test: Test B flood test barnyardgrass; format: in vivo, Echinochloa crus-galli
# Procedure, shortened: (§2)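 Plants were grown to the 2-leaf stage before treatment with test chemical, then held in a greenhouse for twelve to sixteen days. Injury was visually rated against untreated controls on a 0–10 scale, where 0 is no effect and 10 is complete control.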
# corn = test: Test B pre/postemergence corn; format: in vivo, Zea mays; conditions: for Plant response rating, Corn: scale of 0 to 10 where 0 is no effect and 10 is complete control
# Procedure, shortened: as §1
# morningglory = test: Test B pre/postemergence morningglory; format: in vivo, Ipomoea hederacea; conditions: for Plant response rating, Morningglory: scale of 0 to 10 where 0 is no effect and 10 is complete control
# Procedure, shortened: as §1
# sugar beet = test: Test B pre/postemergence sugar beet; format: in vivo, Beta vulgaris; conditions: for Plant response rating, Sugarbeets: scale of 0 to 10 where 0 is no effect and 10 is complete control
# Procedure, shortened: as §1
# duck salad = test: Test B flood test duck salad; format: in vivo, Heteranthera limosa
# Procedure, shortened: as §2
# giant foxtail = test: Test B pre/postemergence giant foxtail; format: in vivo, Setaria faberii; conditions: for Plant response rating, Giant foxtail: scale of 0 to 10 where 0 is no effect and 10 is complete control
# Procedure, shortened: as §1
# pigweed = test: Test B pre/postemergence pigweed; format: in vivo, Amaranthus retroflexus; conditions: for Plant response rating, Redroot pigweed: scale of 0 to 10 where 0 is no effect and 10 is complete control
# Procedure, shortened: as §1
# smallflower flatsedge = test: Test B flood test smallflower flatsedge; format: in vivo, Cyperus difformis
# Procedure, shortened: as §2
# rice = test: Test B flood test rice; format: in vivo, Oryza sativa
# Procedure, shortened: as §2
# soybean = test: Test B pre/postemergence soybean; format: in vivo, Glycine max; conditions: for Plant response rating, Soybean: scale of 0 to 10 where 0 is no effect and 10 is complete control
# Procedure, shortened: as §1
# [1] = Postemergence, Rate 31 g/ha, visual rating, scale 0 to 10 (0 no effect, 10 complete control)
# [2] = Postemergence, Rate 250 g/ha, scale 0 to 10
# [3] = Preemergence, Rate 250 g/ha, scale 0 to 10, 0 is no effect, 10 is complete control
# [4] = Rate 62 g/ha, Postemergence, scale 0 to 10 (0 no effect, 10 complete control)
# [5] = Rate 125 g/ha, Postemergence, scale 0 to 10, 0 is no effect, 10 is complete control
# [6] = Preemergence, Rate 31 g/ha, visual rating, scale 0 to 10 (0 no effect, 10 complete control)
# [7] = Rate 31 g/ha, Pre-emergence section (flood test species), scale 0 to 10
# [8] = Rate 62 g/ha, flood test species, Pre-emergence, visual evaluation after twelve to sixteen days
# [9] = Rate 125 g/ha, under heading Pre-emergence, flood test species, visual evaluation after twelve to sixteen days
# [10] = Rate 250 g/ha, Pre-emergence (flood test species), scale 0 to 10, 0 is no effect, 10 is complete control
compound,measurement,setting,value
CC(C)N(C(=O)n1oc(=O)n(CC2=NOCCC2)c1=O)c1ccc(Cl)cc1 [Compound 450],Nutsedge plant response rating,purple nutsedge; [1],0
same,Nutsedge plant response rating,purple nutsedge; [2],0
same,"Plant response rating, Nutsedge","purple nutsedge; Preemergence, Rate 62 g/ha",0
same,"Plant response rating, Nutsedge","purple nutsedge; Preemergence, Rate 125 g/ha",0
same,Nutsedge plant response rating,purple nutsedge; [3],0
same,Nutsedge plant response rating,purple nutsedge; [4],0
same,Nutsedge plant response rating,purple nutsedge; [5],0
same,Rape plant response rating,rape; [1],0
same,Rape plant response rating,rape; [2],0
same,"Plant response rating, Rape","rape; Preemergence, Rate 62 g/ha",0
same,"Plant response rating, Rape","rape; Preemergence, Rate 125 g/ha",0
same,Rape plant response rating,rape; [3],0
same,Rape plant response rating,rape; [4],0
same,Rape plant response rating,rape; [5],0
same,Bedstraw plant response rating,bedstraw,0
same,Blackgrass plant response rating,blackgrass; [1],0
same,Blackgrass plant response rating,blackgrass; [2],2
same,Blackgrass plant response rating,blackgrass; [6],0
same,"Plant response rating, Blackgrass","blackgrass; Preemergence, Rate 62 g/ha",0
same,"Plant response rating, Blackgrass","blackgrass; Preemergence, Rate 125 g/ha",2
same,Blackgrass plant response rating,blackgrass; [3],4
same,Blackgrass plant response rating,blackgrass; [4],0
same,Blackgrass plant response rating,blackgrass; [5],0
same,B. signalgrass plant response rating,surinam grass; [1],0
same,B. signalgrass plant response rating,"surinam grass; Postemergence, Rate 250 g/ha, scale 0 to 10, 0 no effect, 10 complete control",0
same,B. signalgrass plant response rating,surinam grass; [6],0
same,"Plant response rating, B. signalgrass","surinam grass; Preemergence, Rate 62 g/ha",0
same,"Plant response rating, B. signalgrass","surinam grass; Preemergence, Rate 125 g/ha",1
same,B. signalgrass plant response rating,surinam grass; [3],3
same,B. signalgrass plant response rating,surinam grass; [4],0
same,B. signalgrass plant response rating,surinam grass; [5],0
same,Velvetleaf plant response rating,velvetleaf; [1],0
same,Velvetleaf plant response rating,velvetleaf; [2],2
same,"Plant response rating, Velvetleaf","velvetleaf; Preemergence, Rate 62 g/ha",0
same,"Plant response rating, Velvetleaf","velvetleaf; Preemergence, Rate 125 g/ha",0
same,Velvetleaf plant response rating,velvetleaf; [3],0
same,Velvetleaf plant response rating,velvetleaf; [4],0
same,Velvetleaf plant response rating,velvetleaf; [5],Velvetleaf 0
same,Barnyardgrass plant response rating,bamyardgrass; [7],0
same,"Plant response rating, Barnyardgrass (0 to 10 scale, 0 is no effect, 10 is complete control)",bamyardgrass; [8],0
same,"Barnyardgrass plant response rating (0 to 10 scale, 0 is no effect, 10 is complete control)",bamyardgrass; [9],0
same,Barnyardgrass plant response rating,bamyardgrass; [10],0
same,Corn plant response rating,corn; [1],0
same,Corn plant response rating,corn; [2],0
same,Corn plant response rating,corn; [6],0
same,"Plant response rating, Corn","corn; Preemergence, Rate 62 g/ha",0
same,"Plant response rating, Corn","corn; Preemergence, Rate 125 g/ha",0
same,Corn plant response rating,corn; [3],0
same,Corn plant response rating,corn; [4],0
same,Corn plant response rating,corn; [5],0
same,Morningglory plant response rating,morningglory; [1],0
same,Morningglory plant response rating,morningglory; [2],1
same,"Plant response rating, Morningglory","morningglory; Preemergence, Rate 62 g/ha",0
same,"Plant response rating, Morningglory","morningglory; Preemergence, Rate 125 g/ha",0
same,Morningglory plant response rating,morningglory; [3],0
same,Morningglory plant response rating,morningglory; [4],0
same,Morningglory plant response rating,morningglory; [5],0
same,Sugarbeets plant response rating,sugar beet; [1],0
same,Sugarbeets plant response rating,sugar beet; [2],0
same,"Plant response rating, Sugarbeets","sugar beet; Preemergence, Rate 62 g/ha",0
same,"Plant response rating, Sugarbeets","sugar beet; Preemergence, Rate 125 g/ha",0
same,Sugarbeets plant response rating,sugar beet; [3],0
same,Sugarbeets plant response rating,sugar beet; [4],0
same,Sugarbeets plant response rating,sugar beet; [5],0
same,Ducksalad plant response rating,duck salad; [7],0
same,"Plant response rating, Ducksalad (0 to 10 scale, 0 is no effect, 10 is complete control)",duck salad; [8],0
same,"Ducksalad plant response rating (0 to 10 scale, 0 is no effect, 10 is complete control)",duck salad; [9],0
same,Ducksalad plant response rating,duck salad; [10],0
same,Giant foxtail plant response rating,giant foxtail; [1],0
same,Giant foxtail plant response rating,giant foxtail; [2],7
same,Giant foxtail plant response rating,giant foxtail; [6],0
same,"Plant response rating, Giant foxtail","giant foxtail; Preemergence, Rate 62 g/ha",2
same,"Plant response rating, Giant foxtail","giant foxtail; Preemergence, Rate 125 g/ha",8
same,Giant foxtail plant response rating,giant foxtail; [3],9
same,Giant foxtail plant response rating,giant foxtail; [4],2
same,Giant foxtail plant response rating,giant foxtail; [5],5
same,Redroot pigweed plant response rating,pigweed; [1],0
same,Redroot pigweed plant response rating,pigweed; [2],0
same,"Plant response rating, Redroot pigweed","pigweed; Preemergence, Rate 62 g/ha",0
same,"Plant response rating, Redroot pigweed","pigweed; Preemergence, Rate 125 g/ha",4
same,Redroot pigweed plant response rating,pigweed; [3],7
same,Redroot pigweed plant response rating,pigweed; [4],0
same,Redroot pigweed plant response rating,pigweed; [5],0
same,S. Flatsedge plant response rating,smallflower flatsedge; [7],0
same,"Plant response rating, S. Flatsedge (0 to 10 scale, 0 is no effect, 10 is complete control)",smallflower flatsedge; [8],0
same,"S. Flatsedge plant response rating (0 to 10 scale, 0 is no effect, 10 is complete control)",smallflower flatsedge; [9],0
same,S. Flatsedge plant response rating,smallflower flatsedge; [10],0
same,Rice plant response rating,rice; [7],0
same,"Plant response rating, Rice (0 to 10 scale, 0 is no effect, 10 is complete control)",rice; [8],0
same,"Rice plant response rating (0 to 10 scale, 0 is no effect, 10 is complete control)",rice; [9],0
same,Rice plant response rating,rice; [10],0
same,Soybean plant response rating,soybean; [1],0
same,Soybean plant response rating,soybean; [2],1
same,"Plant response rating, Soybean","soybean; Preemergence, Rate 62 g/ha",0
same,"Plant response rating, Soybean","soybean; Preemergence, Rate 125 g/ha",0
same,Soybean plant response rating,soybean; [3],3
same,Soybean plant response rating,soybean; [4],1
same,Soybean plant response rating,soybean; [5],1
